# Patent US20070099931A1, “Pharmaceutical dosage forms and compositions” (Wyeth, priority 2004, published 2007)
# How the values were obtained:
# [1] = system: 5-HT1A agonist discriminative stimulus cue; details: 0.01-1 mg/kg im; cited from earlier work
# 5-HT1A receptor [2] = biological target: T1, 5-HT1A receptor (Homo sapiens, UniProt P08908); details: in vitro; cited from earlier work
# T1 sequence (P08908 1-422): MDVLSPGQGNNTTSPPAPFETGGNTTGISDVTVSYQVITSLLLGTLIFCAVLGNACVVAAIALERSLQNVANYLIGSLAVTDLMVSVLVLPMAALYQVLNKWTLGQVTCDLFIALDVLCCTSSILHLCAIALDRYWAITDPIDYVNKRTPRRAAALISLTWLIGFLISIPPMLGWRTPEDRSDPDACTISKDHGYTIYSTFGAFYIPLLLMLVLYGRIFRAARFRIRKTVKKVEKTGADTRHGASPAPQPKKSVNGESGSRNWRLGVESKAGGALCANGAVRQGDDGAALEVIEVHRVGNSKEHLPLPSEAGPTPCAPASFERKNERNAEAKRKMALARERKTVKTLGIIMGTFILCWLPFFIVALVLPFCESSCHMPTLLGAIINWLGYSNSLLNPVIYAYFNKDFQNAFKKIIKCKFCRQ
# [3] = system: hippocampal extracellular 5-HT; details: cited from earlier work
# 5-HT1A receptor [4] = details: chronic administration; cited from earlier work
# [5] = system: glutamate and acetylcholine release; details: dentate gyrus of the hippocampus; cited from earlier work
# [6] = aged rhesus monkeys, optimal dose 1 mg/kg po; cited from earlier work
# Solubility in water = type: physicochemical; details: 25° C.
# [7] = marmosets, 2 mg/kg im; cited from earlier work
smiles,measurement,setting,value
"C[C@H](CN(C(=O)c1ccc(C#N)cc1)c1ccccn1)N1CCN(c2cccc3c2OCCO3)CC1 [lecozotan, 4-cyano-N-{(2R)-2-[4-(2,3-dihydro-benzo[1,4]dioxin-5-yl)-piperazin-1-yl]-propyl}-N-pyridin-2-yl-benzamide]",blockade of the 5-HT1A agonist discriminative stimulus cue,[1],dose-related blockade
same,substitution for 8-OH-DPAT,[1],did not substitute for 8-OH-DPAT
same,5-HT1A receptor binding and intrinsic activity,5-HT1A receptor [2],potent and selective 5-HT1A receptor antagonist
same,effect alone on hippocampal extracellular 5-HT,[3]; doses 10-fold higher than 0.3 mg/kg sc,had no effects alone
same,effect on decrease in hippocampal extracellular 5-HT induced by 8 OH-DPAT (0.3 mg/kg sc),[3]; lecozotan 0.3 mg/kg sc,antagonized the decrease in hippocampal extracellular 5-HT
same,5-HT1A receptor tolerance or desensitization,5-HT1A receptor [4],did not induce 5-HT1A receptor tolerance or desensitization
same,potassium chloride-stimulated release of glutamate and acetylcholine,[5],significantly potentiated
same,task performance efficiency,[6],significant improvement in task performance efficiency
same,solubility,Solubility in water,~51 mg/mL
same,learning deficits induced by specific cholinergic lesions of the hippocampus,[7],reversed
same,learning deficits induced by the glutamatergic antagonist MK-801,[7],reversed
